{
  "source": "patent US5928627A",
  "about": "“Fluorescent chelates as visual tissue specific imaging agents” (The Dow Chemical Company, priority 1997, dated 1999)",
  "key": {"rat bone (femur)": {"tested_on": "rat bone (femur)", "assay": "Micro-endoscopic fluorescence imaging of rat femur", "format": "in vivo", "text": "The optical train used is depicted in FIG. 5. For the resolution studies a 1951 USAF resolution target was used. The resolution target consists of groups of elements (lines) that are a known width, length and distance apart. The lines on the target are made from a black emulsion deposited onto a white positive background (clear glass). The images are obtained by back illuminating the resolution target using an IR filtered xenon discharge lamp. The beam from an optical fiber passes through a diffuser of in-house construction which replaces the 270 nm interference filter (4) shown in FIG. 5. The distance of the scope tip from the target (1.5 mm) was chosen so that the best in-focus image is produced. The image was collected by a 0°, 30° and 60° viewing angle with respect to the central axis of the thin rod lens endoscope. A 10× microscope objective, placed 10 mm from the endoscope, collected, magnified and played the image onto a CCD (5). […] The software produces a graph of light intensity as a function of position across the line pairs. The limiting resolution (LP/mm) is calculated using a aerial image modulation (AIM) plot and is defined as the point where the dI/dx remains constant.\nField of view measurements were made by repositioning the target so that a single line laterally spanned the field of view of the endoscope. The circular field of view is easily calculated knowing the length of the line on the resolution target the represents the diameter of the viewing zone. […]\nFor analysis of the bone fluorescence, two rats were injected with Tb-PCTMP or Tb-BP2P. […]\nFor the fluorescence measurements, the instrument in FIG. 5 was modified. […] A 550 nm bandpass filter was placed between the microscope objective (3) and the CCD (5) to select fluorescence and block background light. […]\nUpon visual inspection of the high resolution video monitor (7), resolution of 181 LP/mm can be obtained. […] As calculated in a manner similar to Example II, it is possible to estimate the quantity of solute within a particular imaged zone. […]"}, "UMR106 cells": {"tested_on": "UMR106 cells", "assay": "Subcellular uptake fluorescence in UMR106 cells (organelle and membrane smears)", "format": "cell-based", "conditions": "2 mL of 2×10^-3 M", "description": "UMR106 cells were obtained from American Type Culture Collection and maintained in Basal Eagle Media with 10% fetal bovine serum. Cells were propagated so that 3×10^7 cells were contained in 25 mL. One day prior to confluence, the cells were inoculated with 2 mL of 2×10^-3 M Tb-PCTMP. At confluence, the media and Tb-TCTMP was removed with four washings of PBS. Cells were separated from the flask with 3 mL of trypsin, transferred to a centrifuge tube with 12 mL of media and spun at 1000 g for 10 minutes to pellet the cells. The pellet was resuspended in 2 mL of media and frozen by submersion of the tube into liquid nitrogen. The frozen mixture was scooped out of the tube and transferred to a mortar. To the mixture, an equal weight of sea sand and 10 mL of liquid nitrogen were added. This mixture was ground with a pestle for 30 minutes until liquefied. The resulting mixture was transferred to a centrifuge tube and spun at 10,000 rpm for 15 minutes leaving intact cells, sand and membranes in the pellet and the cytoplasmic organelles in the supernatant. The supernatant was spun at 45,000 rpm for 90 minutes in an ultracentrifuge tube to pellet the organelles. […] Both the membranes and the organelles were smeared onto microscope slides and analyzed using a Zeiss microscope, modified for UV excitation."}, "[1]": {"assay": "Fluorescence properties of the complexes", "format": "physicochemical", "conditions": "excited with a UV lamp", "text": "The use of terbium (Tb) or europium (Eu) as the central metal ion to render a tissue specific fluorescent probe is very appealing. Derivatives of this type would be valuable for visual assessment of tissue conditions such as early detection of cancer and would not depend upon protein conjugation to reach their target. Furthermore, concentration of the active fluorescent material could conceivably be much higher than in the case of immunoassays making detection much easier. The present complexes have an excitation band of 250 to 290 nm and a spike emission with peaks at bands of 490 to 510 nm, 540 to 560 nm, 590 to 600 nm and 615 to 635 nm, high quantum efficiency and millisecond relaxation lifetimes which allow signal collection after prompt tissue autofluorescence has subsided and allows data collection outside the range for normal tissue fluorescence. […] Furthermore, chelates derived from this family of macrocyclic ligands are among the most thermodynamically and kinetically inert lanthanide complexes, a paramount consideration for biological studies where metal ion toxicity is of major importance."}, "[2]": {"tested_on": "rat bone and intestinal tissues", "conditions": "in vivo"}, "[3]": {"tested_on": "colon adenocarcinoma (1,2 dimethylhydrazine induced tumors)", "assay": "Fluorescence imaging of normal versus neoplastic colon tissue after lavage", "format": "in vivo, Sprague Dawley rat", "conditions": "0.1 mmol/kg, 20 minutes", "description": "Tumors were induced in Sprague Dawley rats via injection of 1,2 dimethylhydrazine dihydrochloride and the subsequent feeding of a high fat, meat-based diet. […] One animal with an observable lesion was anesthetized, allowing it to respire during lavage introduction of the fluorescent marker. An aqueous solution of Tb-PTCMB at a concentration of 0.1 mmol/kg animal body weight, was administered to a Sprague Dawley rat using the 1.0 mm working lumen of the micro-endoscope. Introduction of the marker solution was made at the site of the suspect tissue mass with a volume necessary to fill the entire large intestine (method described in U.S. Pat. No. 5,456,245). […]\nUpon dissection of the large intestine, a large occlusive mass approximately 4.5 cm by 5.0 cm was found approximately 15 cm from the rectum. […] Four slides from each tissue region were first left unstained for fluorescence microscopy imaging as described below and then stained with Hematoxylin and Eosin (H&E stain). Using standard histological criteria for diagnosis, tissue taken from the suspect site was determined to be adenocarcinoma. […] The tissue taken from a location removed from the abnormality was determined to be normal.\nUsing an in-house modified microscope, samples from the suspect and remote regions of the animal were imaged. Shown in FIGS. 10C and 11C are the fluorescence images of the identical regions of the same tissues. […]"}, "HT-29 cells": {"tested_on": "HT-29 cells", "assay": "Cytotoxicity HT-29 cells (Trypan blue)", "format": "cell-based", "conditions": "2 mL of 2 mM Tb-PCTMB", "experimental": "HT-29 cell lines were obtained from American Type Culture Collection (ATCC) and maintained in Dulbecco's Modified Eagle Medium (DMEM) with 10% fetal bovine serum. Tree days prior to confluence, the cells were inoculated with 2 mL of 2 mM Tb-PCTMB and allowed to grow to confluence. Two days prior to confluence, the unbound TB-PCTMB was removed with four washings of PBS and the cells were removed from the flask with 3 mL of trypsin. The cell suspension was transferred to a centrifuge tube with 12 mL of growth media and spun a 1000 g for 10 minutes to pellet the cells. The media and the trypsin were removed and the cell suspension was resuspended in 5 mL of media. For ease in counting, 100 μL of the cell suspension was mixed with 100 μL of media in a microfuge tube. Fifty μL of this dilution was mixed with 50 μL of Trypan blue stain and loaded into the hemocytometer. The cells in 5 squares on the hemocytometer were counted where stained cells were dead and unstained cells were alive. Multiplication of the average count per square by the dilution factor (4) gave the number of cells×10^4 per mL. The number of cells reported is the average of three individual counts."}, "IEC-6 cells": {"tested_on": "IEC-6 cells", "assay": "Cytotoxicity IEC-6 cells", "format": "cell-based", "text": "*Average of triplicate counting. Procedure detailed in Ref. 27"}, "[4]": {"tested_on": "rat bone and intestinal tissues", "assay": "Tissue fluorescence microscopy/tissue selectivity of Tb chelates in rats"}},
  "note": "Entries after “also recorded” stand apart in the source; their conditions may differ. Read-outs that look alike come from different tables or passages of the source.",
  "data": [
    {"smiles": "O=P(O)(O)CN1CCN(CP(=O)(O)O)Cc2cccc(n2)CN(CP(=O)(O)O)CC1.[Tb]", "note": "[Tb-PCTMP, terbium 3,6,9-tris(methylenephosphonic acid)-3,6,9,15-tetraazabicyclo[9.3.1]pentadeca-1(13),11,13-triene]", "values": [
      {"measurement": "quantity per pixel, blue-purple contour", "setting": "rat bone (femur); excised rat femur, FIG. 8", "value": "1.54×10^-15 moles Tb-PCTMP/pixel"},
      {"measurement": "quantity per pixel, red contour", "setting": "rat bone (femur); excised rat femur, FIG. 8", "value": "3.35×10^-15 moles Tb-PCTMP/pixel"},
      {"measurement": "solute present in entire imaged region of the bone (surface)", "setting": "rat bone (femur); rat femur, 2 hours", "value": "about 5.19 picomoles"},
      {"measurement": "fluorescence in the organelle smear of dosed cells", "setting": "UMR106 cells; control no discernible fluorescence", "value": "significant fluorescence was detected"},
      {"measurement": "fluorescence in the membrane smears", "setting": "UMR106 cells; dosed and control cells", "value": "No signal was detected"},
      {"measurement": "visible emission of the isolated complex", "setting": "[1]", "value": "brilliant green visible emission"},
      {"measurement": "tissue uptake/selectivity", "setting": "[2]", "value": "skeletal system uptake"}
    ]},
    {"smiles": "O=P(O)(O)CN1Cc2cccc(n2)CN(CP(=O)(O)O)Cc2cccc(n2)C1.[Tb]", "note": "[Tb-BP2P, terbium N,N'-bis(methylenephosphonic acid)-2,11,diaza[3.3]-(2,6)pyridinophane]", "values": [
      {"measurement": "distribution of the chelate in bone", "setting": "[2]", "value": "fairly uniform"}
    ]},
    {"smiles": "CCCCOP(=O)(O)CN1CCN(CP(=O)(O)OCCCC)Cc2cccc(n2)CN(CP(=O)(O)OCCCC)CC1.[Tb]", "note": "[Tb-PCTMB, terbium 3,6,9-tris(methylenephosphonic acid n-butyl ester)-3,6,9,15, tetraazabicyclo[9.3.1]pentadeca-1(15),11,13-triene]", "values": [
      {"measurement": "relative difference between the quantity of marker solute in normal versus neoplastic tissue", "setting": "[3]", "value": "an order of magnitude"},
      {"measurement": "uptake by abnormal colon tissue", "setting": "[3]", "value": "preferential or enhanced uptake"},
      {"measurement": "Total (Cells/ml)", "setting": "HT-29 cells; average of triplicate counting, control 5.30 × 10^6", "value": "4.70 × 10^6 Cells/ml"},
      {"measurement": "Dead Cells", "setting": "HT-29 cells; control 5.7%", "value": 8.5, "unit": "%"},
      {"measurement": "Live Cells", "setting": "HT-29 cells; control 94.3%", "value": 91.5, "unit": "%"},
      {"measurement": "Total Cells", "setting": "IEC-6 cells; average of triplicate counting, control 5.70 × 10^6", "value": "5.30 × 10^6"},
      {"measurement": "Dead Cells", "setting": "IEC-6 cells; control 10.5%", "value": 9.4, "unit": "%"},
      {"measurement": "Live Cells", "setting": "IEC-6 cells; control 89.5%", "value": 90.6, "unit": "%"},
      {"measurement": "interactions between the chelate and blood proteins", "setting": "[2]", "value": "enhances interactions between the chelate and blood proteins"},
      {"measurement": "tissue uptake/selectivity", "setting": "[4]", "value": "substantial hepatobiliary uptake; also recorded: concentrates in the small intestine"}
    ]}
  ]
}
